The melting point is the temperature, or range, at which the solid turns liquid.

This is an account of results in patent USRE47689E1, “Compounds for treating spinal muscular atrophy” (PTC Therapeutics, Inc., priority 2011, dated 2019).

Series [1] concerns SMN2 minigene (full length SMN2 minigene mRNA containing SMN2 exon 7). The series is described as follows: SMN2 minigene mRNA splicing RT-qPCR assay in cultured cells. It counts as cell-based, human. The following applies: Homo sapiens, HEK293-H; HEK293H cells stably transfected with SMN2-A minigene; 24 hours; 7-point concentration curve; 1.5-fold relative to vehicle-treated cells; read-out: EC1.5x for production of full length SMN2 mRNA. The procedure, abridged: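 Read-out: full-length (exon 7-included) SMN2 minigene mRNA by multiplex RT-qPCR with GAPDH, efficiency-corrected (1+E)^−Ct, GAPDH-normalized and divided by vehicle. Stably transfected HEK293H cells, 24 h compound exposure, duplicates per concentration. Value is EC1.5x, reported as star ranges.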
A general note: Real-time PCR tracks product formation cycle by cycle.

In the next series the test system is Smn protein. The series is described as follows: Smn protein assay in cultured cells (SMN HTRF). It counts as cell-based, human. The following applies: 48 hours; for maximum fold (Fold) increase of Smn protein: SMA patient fibroblast cells, 7-point concentration data, fold increase relative to vehicle control (SMN HTRF); for EC1.5x (concentration giving 1.5-fold Smn protein increase): SMA Type 1 patient fibroblast cells (GM03813), 7-point concentration curve, SMN HTRF, concentration producing 1.5 times Smn protein vs DMSO vehicle control, read-out: EC1.5x for Smn protein expression. The procedure, abridged:
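Lysates in RIPA with protease inhibitors are incubated overnight at room temperature with HTRF anti-SMN antibodies. EC1.5x is derived from fold increase in ΔF over vehicle.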

Compound `Cc1csc(-c2cc3ccc(N4C[C@@H](C)NC[C@@H]4C)cc3oc2=O)n1` [Compound 299, 7-[(2S,5R)-2,5-dimethylpiperazin-1-yl]-3-(4-methyl-1,3-thiazol-2-yl)-2H-chromen-2-one] came in with a melting point of 184 to 190 °C. For the same compound, the EC (1.5-fold) in series [1] lay within 1 to 3 µM. In the series on Smn protein, the “maximum fold (Fold) increase of Smn protein” value (from here on “maximum fold (Fold) increase”) was “* (maximum fold increase of ≤1.2)”.

The compound `C[C@H]1CN(c2ccc3cc(-c4cc5ccccc5o4)c(=O)oc3c2)CCN1` [Compound 603, 3-(1-benzofuran-2-yl)-7-[(3S)-3-methylpiperazin-1-yl]-2H-chromen-2-one] displayed a melting point of 192 to 194 °C. The EC (1.5-fold) in series [1] lay in the range of 0.3 to 1 µM. The “maximum fold (Fold) increase” value in the series on Smn protein is listed as “* (maximum fold increase of ≤1.2)”.

The compound `C[C@@H]1CN(c2ccc3cc(-c4cn5cc(F)cnc5n4)c(=O)oc3c2)C[C@H](C)N1` [Compound 491, 7-[(3R,5S)-3,5-dimethylpiperazin-1-yl]-3-(6-fluoroimidazo[1,2-a]pyrimidin-2-yl)-2H-chromen-2-one] showed a melting point of 275 to 281 °C. In addition, the EC (1.5-fold) in series [1] was in the range of 1 to 3 µM. The “maximum fold (Fold) increase” value with Smn protein is “** (fold increase between >1.2 and ≤1.35)”.

Turning to `Cc1ccn2cc(-c3cc4ccc(N5CCCN(C)CC5)cc4oc3=O)nc2c1` [Compound 217, 7-(4-methyl-1,4-diazepan-1-yl)-3-(7-methylimidazo[1,2-a]pyridin-2-yl)-2H-chromen-2-one], the melting point was 200 to 206 °C. Also, the EC (1.5-fold) in series [1] lay in the range of 0.3 to 1 µM. In addition, in the series with Smn protein, the “maximum fold (Fold) increase” value was “*** (fold increase between >1.35 and ≤1.5)”.

In turn, `CCN1CCN(c2ccc3cc(-c4cn5cccc(C)c5n4)c(=O)oc3c2)CC1` [Compound 100, 7-(4-ethylpiperazin-1-yl)-3-(8-methylimidazo[1,2-a]pyridin-2-yl)-2H-chromen-2-one] yielded a melting point of 211 to 213 °C. The EC (1.5-fold) in series [1] was 0.3 to 1 µM. Moreover, the “maximum fold (Fold) increase” value with Smn protein was “** (fold increase between >1.2 and ≤1.35)”.

In the case of `Cc1ccn2cc(-c3cc4ccc(N5CCCNCC5)cc4oc3=O)nc2c1` [Compound 216, 7-(1,4-diazepan-1-yl)-3-(7-methylimidazo[1,2-a]pyridin-2-yl)-2H-chromen-2-one], the melting point amounted to 236 °C. Also, the EC (1.5-fold) in series [1] lay within 0.3 to 1 µM. Besides, the “maximum fold (Fold) increase” value with Smn protein was “*** (fold increase between >1.35 and ≤1.5)”.

Compound `C[C@@H]1CN(c2ccc3cc(-c4cn5ccsc5n4)c(=O)oc3c2)CCN1` [Compound 204, 3-(imidazo[2,1-b][1,3]thiazol-6-yl)-7-[(3R)-3-methylpiperazin-1-yl]-2H-chromen-2-one] gave a melting point of 233 to 237 °C. Besides, the EC (1.5-fold) in series [1] is 0.1 to 0.3 µM. Further, in the series with Smn protein, the “maximum fold (Fold) increase” value was “*** (fold increase between >1.35 and ≤1.5)”.

On to `Cc1nc(Cl)cn2cc(-c3cc4ccc(N5CCN(C)CC5)cc4oc3=O)nc12` [Compound 764, 3-(6-chloro-8-methylimidazo[1,2-a]pyrazin-2-yl)-7-(4-methylpiperazin-1-yl)-2H-chromen-2-one], for which the melting point lay in the range of 217 to 220 °C. In addition, the EC (1.5-fold) in series [1] was less than 0.1 µM. In addition, the “maximum fold (Fold) increase” value in the series with Smn protein is “** (fold increase between >1.2 and ≤1.35)”.

`O=c1oc2cc(N3CCNCC3)ccc2cc1-c1cc2ccccc2s1` [Compound 407, 3-(1-benzothiophen-2-yl)-7-(piperazin-1-yl)-2H-chromen-2-one] yielded a melting point of 243 to 245 °C. For the same compound, in series [1], the EC (1.5-fold) lay in the range of 0.3 to 1 µM. Besides, the “maximum fold (Fold) increase” value with Smn protein was “* (maximum fold increase of ≤1.2)”.

As to `O=c1oc2cc(CN3CCCCC3)ccc2cc1-c1nc2ccccc2s1` [Compound 59, 3-(1,3-benzothiazol-2-yl)-7-(piperidin-1-ylmethyl)-2H-chromen-2-one], the melting point fell in the range of 201 to 205 °C. In addition, the EC (1.5-fold) in series [1] is 1 to 3 µM. For the same compound, the “maximum fold (Fold) increase” value in the series with Smn protein was “** (fold increase between >1.2 and ≤1.35)”.

As for `CCc1ccn2cc(-c3cc4ccc(N5C[C@@H](C)N[C@@H](C)C5)cc4oc3=O)nc2c1` [Compound 289, 7-[(3R,5S)-3,5-dimethylpiperazin-1-yl]-3-(7-ethylimidazo[1,2-a]pyridin-2-yl)-2H-chromen-2-one], the melting point is 183 to 188 °C. Besides, the EC (1.5-fold) in series [1] is 0.3 to 1 µM. The “maximum fold (Fold) increase” value in the series on Smn protein is on record as “* (maximum fold increase of ≤1.2)”.

For the compound `CC(C)NCc1ccc2cc(-c3nc4c(Cl)cccc4s3)c(=O)oc2c1` [Compound 10, 3-(4-chloro-1,3-benzothiazol-2-yl)-7-[(propan-2-ylamino)methyl]-2H-chromen-2-one], the melting point lay in the range of 157 to 161 °C. For the same compound, the EC (1.5-fold) in series [1] lay within 0.3 to 1 µM. The “maximum fold (Fold) increase” value with Smn protein is “* (maximum fold increase of ≤1.2)”.

`CN(CCO)Cc1ccc2cc(-c3nc4c(Cl)cccc4s3)c(=O)oc2c1` [Compound 271, 3-(4-chloro-1,3-benzothiazol-2-yl)-7-{[(2-hydroxyethyl)(methyl)amino]methyl}-2H-chromen-2-one] yielded a melting point of 193 to 196 °C. The EC (1.5-fold) in series [1] fell in the range of 1 to 3 µM. In addition, in the series with Smn protein, the EC1.5x (concentration giving 1.5-fold Smn protein increase) is 3000 to 10000 nM; the “maximum fold (Fold) increase” value is “**** (fold increase between >1.5 and ≤1.65)”.

Compound `CN1CCN(c2ccc3cc(-c4cn5cc(Cl)sc5n4)c(=O)oc3c2)CC1` [Compound 478, 3-(2-chloroimidazo[2,1-b][1,3]thiazol-6-yl)-7-(4-methylpiperazin-1-yl)-2H-chromen-2-one] displayed a melting point of 268 to 270 °C. In addition, the EC (1.5-fold) in series [1] lay within 0.3 to 1 µM. The “maximum fold (Fold) increase” value in the series on Smn protein is “* (maximum fold increase of ≤1.2)”.

`O=c1oc2cc(N3CCN(CCO)CC3)ccc2cc1-c1cn2cc(Cl)cnc2n1` [Compound 347, 3-(6-chloroimidazo[1,2-a]pyrimidin-2-yl)-7-[4-(2-hydroxyethyl)piperazin-1-yl]-2H-chromen-2-one]: the melting point is 288 to 296 °C. The EC (1.5-fold) in series [1] was 3 to 30 µM. The “maximum fold (Fold) increase” value in the series on Smn protein is given as “* (maximum fold increase of ≤1.2)”.

As for `Cc1cn2cc(-c3cc4ccc(N5C[C@H]6CCCN(CCO)[C@H]6C5)cc4oc3=O)nc2c(C)n1` [Compound 785, 3-(6,8-dimethylimidazo[1,2-a]pyrazin-2-yl)-7-[(4aR,7aR)-1-(2-hydroxyethyl)octahydro-6H-pyrrolo[3,4-b]pyridin-6-yl]-2H-chromen-2-one], the melting point was 207 to 217 °C. The EC (1.5-fold) in series [1] was less than 0.1 µM. Moreover, in the series with Smn protein, the EC1.5x (concentration giving 1.5-fold Smn protein increase) was 1000 to 3000 nM; the “maximum fold (Fold) increase” value was “**** (fold increase between >1.5 and ≤1.65)”.

As to `CCN1CCC(Oc2ccc3cc(-c4cn5cc(C)nc(C)c5n4)c(=O)oc3c2)CC1` [Compound 898, 3-(6,8-dimethylimidazo[1,2-a]pyrazin-2-yl)-7-[(1-ethylpiperidin-4-yl)oxy]-2H-chromen-2-one], the melting point is 175 to 177 °C. In addition, the EC (1.5-fold) in series [1] was less than 0.1 µM. Further, in the series on Smn protein, the EC1.5x (concentration giving 1.5-fold Smn protein increase) was less than 300 nM and the “maximum fold (Fold) increase” value is given as “***** (fold increase >1.65)”.
